Key:
[1] = Cytotoxicity against human HeLa CCL2 cells assessed as reduction in cell viability measured after 24 hrs by Alamar blue assay; type: functional
Chikungunya virus [2] = test: Antiviral activity against CHIKV 122508 infected in […] BHK-21 cells assessed as reduction in viral titer at MOI of 1 measured after 24 hpi by viral plaque assay; type: functional, organism-based; settings: Chikungunya virus, 122508, BHK-21
[3] = Selectivity index, ratio of CC50 for cytotoxicity against human HeLa CCL2 cells to EC50 for antiviral activity against CHIKV 122508 infected in human HeLa CCL2 cells; type: toxicity, cell-based; settings: read-out: Ratio CC50/EC50
Chikungunya virus [4] = test: Antiviral activity against CHIKV 122508 infected in human HeLa CCL2 cells assessed as inhibition of viral replication at MOI of 1 at 100 uM incubated for 24 hpi by viral plaque assay; type: functional; set-up: unit not given here; settings: time 24 hrs
Chikungunya virus [5] = test: Antiviral activity against CHIKV 122508 infected in human HeLa CCL2 cells assessed as inhibition of viral replication at MOI of 1 at 10 uM incubated for 24 hpi by viral plaque assay; type: functional; set-up: unit not given here; settings: time 24 hrs

Q: Which CC50 [1] does the source give for `C=C1CC[C@H]2C(C)(C)CCC[C@]2(C)[C@H]1C/C=C1/C(=O)Nc2ccc(C(F)(F)F)cc21` here?
A: 6.66 µM

Q: Which results are given for `C=C1CC[C@H]2C(C)(C)CCC[C@]2(C)[C@H]1C/C=C1/C(=O)Nc2cc(C(F)(F)F)ccc21`?
A: EC50 (Chikungunya virus [2]): 7.41 µM; CC50 [1]: 77.2 µM; selectivity ratio [3]: 10

Q: With `C=C1CC[C@H]2C(C)(C)CCC[C@]2(C)[C@H]1C/C=C1/C(=O)Nc2ccc(Cl)cc21` as the compound, how does the EC50 (Chikungunya virus [2]) read?
A: 1.3 µM

Q: What about the CC50 [1] of the same compound?
A: 36.1 µM

Q: What about the selectivity ratio [3] of the same compound?
A: 27

Q: With `C=C1CC[C@H]2C(C)(C)CCC[C@]2(C)[C@H]1C/C=C1\C(=O)Nc2cc(Cl)ccc21` as the compound, how does the CC50 [1] read?
A: 15.6 µM

Q: With `C=C1CC[C@@H]2[C@](C)(COC(C)=O)[C@H](OC(C)=O)CC[C@@]2(C)[C@@H]1C/C=C1\C(=O)Nc2ccccc21` as the compound, how does the EC50 (Chikungunya virus [2]) read?
A: 8.3 µM

Q: What about the CC50 [1] of the same compound?
A: > 100 µM

Q: What about the selectivity ratio [3] of the same compound?
A: > 12

Q: With `C=C1CC[C@H]2C(C)(C)CCC[C@]2(C)[C@H]1C/C=C1\C(=O)Nc2c(Cl)cccc21` as the compound, how does the EC50 (Chikungunya virus [2]) read?
A: 10.5 µM

Q: What about the CC50 [1] of the same compound?
A: 59.7 µM

Q: And the selectivity ratio [3]?
A: 5.7

Q: For `C=C1CC[C@H]2C(C)(C)CCC[C@]2(C)[C@H]1C/C=C1/C(=O)Nc2ccc(Br)cc21`, which EC50 (Chikungunya virus [2]) is on record?
A: 7.4 µM

Q: What about the CC50 [1] of the same compound?
A: 77.2 µM

Q: What about the selectivity ratio [3] of the same compound?
A: 10

Q: Which EC50 (Chikungunya virus [2]) does the source give for `C=C1CC[C@H]2C(C)(C)CCC[C@]2(C)[C@H]1C/C=C1\C(=O)Nc2c(C)cccc21` here?
A: 0.15 µM

Q: What about the CC50 [1] of the same compound?
A: > 100 µM

Q: And the selectivity ratio [3]?
A: > 667

Q: And the Activity (Chikungunya virus [4])?
A: 2.8

Q: Which CC50 [1] does the source give for `C=C1CC[C@@H]2[C@](C)(CO)[C@H](O)CC[C@@]2(C)[C@@H]1C/C=C1\C(=O)N(C(C)=O)c2ccccc21` here?
A: > 100 µM

Q: Which EC50 (Chikungunya virus [2]) does the source give for `C=C1CC[C@H]2C(C)(C)CCC[C@]2(C)[C@H]1C/C=C1\C(=O)Nc2c1cccc2C(F)(F)F` here?
A: 8.77 µM

Q: And the CC50 [1]?
A: > 100 µM

Q: What about the selectivity ratio [3] of the same compound?
A: > 11

Q: For `C=C1CC[C@H]2C(C)(C)CCC[C@]2(C)[C@H]1C/C=C1/C(=O)Nc2ccccc21`, which EC50 (Chikungunya virus [2]) is on record?
A: 2.8 µM

Q: And the CC50 [1]?
A: 41.6 µM

Q: What about the selectivity ratio [3] of the same compound?
A: 15

Q: Which CC50 [1] does the source give for `C=C1CC[C@@H]2[C@](C)(CO)[C@H](O)CC[C@@]2(C)[C@@H]1C/C=C1/C(=O)N(C(C)=O)c2ccccc21` here?
A: > 100 µM

Q: With `C=C1CC[C@H]2C(C)(C)CCC[C@]2(C)[C@H]1C/C=C1\C(=O)Nc2c(Cl)cc(F)cc21` as the compound, how does the EC50 (Chikungunya virus [2]) read?
A: 0.07 µM

Q: And the CC50 [1]?
A: > 100 µM

Q: And the selectivity ratio [3]?
A: > 1350

Q: What about the Activity (Chikungunya virus [4]) of the same compound?
A: 2.6

Q: For `C=C1CC[C@H]2C(C)(C)CCC[C@]2(C)[C@H]1C/C=C1\C(=O)Nc2cccc(C)c21`, which EC50 (Chikungunya virus [2]) is on record?
A: 0.72 µM

Q: And the CC50 [1]?
A: 49.9 µM

Q: What about the selectivity ratio [3] of the same compound?
A: 69

Q: Which results are given for `C=C1CC[C@H]2C(C)(C)CCC[C@]2(C)[C@H]1C/C=C1\C(=O)Nc2c(F)cccc21`?
A: Activity (Chikungunya virus [5]): 2; EC50 (Chikungunya virus [2]): 0.08 µM; CC50 [1]: 26.9 µM; selectivity ratio [3]: 336

Q: For `C=C1CC[C@@H]2[C@](C)(CO)[C@H](O)CC[C@@]2(C)[C@@H]1CCC1C(=O)Nc2ccccc21` (stereo not given in full), which CC50 [1] is on record?
A: > 100 µM

Q: Which CC50 [1] does the source give for `C=C1CC[C@H]2C(C)(C)CCC[C@]2(C)[C@H]1C/C=C1/C(=O)Nc2cc(Cl)ccc21` here?
A: 5.7 µM

Q: For `C=C1CC[C@H]2C(C)(C)CCC[C@]2(C)[C@H]1C/C=C1/C(=O)Nc2c1cccc2C(F)(F)F`, which EC50 (Chikungunya virus [2]) is on record?
A: 1.64 µM

Q: And the CC50 [1]?
A: > 100 µM

Q: And the selectivity ratio [3]?
A: > 61

Q: For `C=C1CC[C@H]2C(C)(C)CCC[C@]2(C)[C@H]1C/C=C1/C(=O)Nc2cc(Br)ccc21`, which CC50 [1] is on record?
A: 8.3 µM

Q: What does the source list for `C=C1CC[C@H]2C(C)(C)CCC[C@]2(C)[C@H]1C/C=C1\C(=O)Nc2ccc(C(F)(F)F)cc21`?
A: EC50 (Chikungunya virus [2]): 2.63 µM; CC50 [1]: > 16.2 µM; selectivity ratio [3]: > 6.1

Q: Which EC50 (Chikungunya virus [2]) does the source give for `CC1=CC[C@H]2C(C)(C)CCC[C@]2(C)[C@H]1C/C=C1\C(=O)Nc2ccccc21` here?
A: 5.69 µM

Q: And the CC50 [1]?
A: 17 µM

Q: What about the selectivity ratio [3] of the same compound?
A: 3

Q: What does the source list for `CC1=CC[C@H]2C(C)(C)CCC[C@]2(C)[C@H]1C/C=C1\C(=O)Nc2c(Cl)cccc21`?
A: EC50 (Chikungunya virus [2]): 9.35 µM; CC50 [1]: 194 µM; selectivity ratio [3]: 21

Q: What does the source list for `C=C1[C@H](O)C[C@H]2C(C)(C)CCC[C@]2(C)[C@H]1C/C=C1\C(=O)Nc2ccccc21`?
A: EC50 (Chikungunya virus [2]): 1.41 µM; CC50 [1]: 20 µM; selectivity ratio [3]: 14

Q: For `C=C1CC[C@@H]2[C@](C)(CO)[C@H](O)CC[C@@]2(C)[C@@H]1C/C=C1/C(=O)N(C)c2ccccc21`, which CC50 [1] is on record?
A: > 100 µM

Q: Which EC50 (Chikungunya virus [2]) does the source give for `C=C1CC[C@@H]2[C@](C)(CO)[C@H](O)CC[C@@]2(C)[C@@H]1C/C=C1\C(=O)Nc2ccccc21` here?
A: 5.85 µM

Q: What about the CC50 [1] of the same compound?
A: > 100 µM

Q: And the selectivity ratio [3]?
A: > 17

Q: Which EC50 (Chikungunya virus [2]) does the source give for `C=C1CC[C@H]2C(C)(C)CCC[C@]2(C)[C@H]1C/C=C1/C(=O)NC(=O)c2ccccc21` here?
A: 3.46 µM

Q: And the CC50 [1]?
A: 50.5 µM

Q: What about the selectivity ratio [3] of the same compound?
A: 15
